Reference: US12679849B2, “Macrocyclic compounds as STING agonists” (LUPIN LIMITED, priority 2019, dated 2026)

Experiments:
Human STING = molecular target: T1, Human STING (Homo sapiens, UniProt Q86WV6, G230A/H232R/R293Q/R71H); assay: Stimulation of human STING signalling in THP1-Blue ISG SEAP reporter cell line; assay type: cell-based; conditions: THP1-Blue ISG cells, 18-20 hours incubation
T1 construct: using human THP1-Blue™ ISG SEAP based reporter cell line (Invivogen); host or cells: THP1-Blue ISG (human monocytic THP-1 derived SEAP reporter line)
Description: Stimulation of Human STING Signalling in THP1 Cell Line
Compounds were tested for their STING activation potential using human THP1-Blue™ ISG SEAP based reporter cell line (Invivogen). Briefly, THP1-Blue ISG cells (100,000 cells/well) in 96 well plate were treated with varying concentrations of test and reference compounds and incubated at 37° C. with 5% CO2 for 18-20 hours. The control untreated cells were also set up. Post incubation, the cell supernatant was tested for SEAP (Secreted Embryonic Alkaline Phosphatase) activity using the QuantiBlue™ substrate reagent (Invivogen). The formation of blue coloured product was quantified by measuring absorbance at wavelength of 620 nm using PheraStar/Tecan reader. The average of duplicate readouts for each data point was plotted in GraphPad prism 6 against the concentration of test or reference compound to calculate EC50 value. The fold of SEAP induction or increase in luminescence at different data points was estimated against the un-stimulated cell control set.

IFNβ = assay: Cytokine (IFNβ) secretion in serum samples from CT-26 tumor bearing BALB/c mice; assay type: in vivo, mouse; conditions: serum of CT-26 tumor-bearing BALB/c mice, 0.5 mg/kg, 3.5 h
Description: Quantification of the Cytokine Secretion in Serum Samples from the CT-26 Tumor Bearing BALB/c Mice
CT-26 tumor-bearing animals were administered with test compounds at the dose of 0.5 mg/kg, in a dose-volume of 5 ml/kg. Serum samples were collected at designated time points (3.5 h) and frozen at −80° C. till further estimation. Mouse serum samples were diluted appropriately with dilution buffer before estimation of IFNβ utilizing commercially available kits (VeriKine Mouse IFN Beta ELISA, PBL assay science, Catalog No 42400-2). Raw data values were corrected with the dilution factor and finally expressed in pg/mL.

T1 sequence (Q86WV6 whole entry R71H/G230A/H232R/R293Q): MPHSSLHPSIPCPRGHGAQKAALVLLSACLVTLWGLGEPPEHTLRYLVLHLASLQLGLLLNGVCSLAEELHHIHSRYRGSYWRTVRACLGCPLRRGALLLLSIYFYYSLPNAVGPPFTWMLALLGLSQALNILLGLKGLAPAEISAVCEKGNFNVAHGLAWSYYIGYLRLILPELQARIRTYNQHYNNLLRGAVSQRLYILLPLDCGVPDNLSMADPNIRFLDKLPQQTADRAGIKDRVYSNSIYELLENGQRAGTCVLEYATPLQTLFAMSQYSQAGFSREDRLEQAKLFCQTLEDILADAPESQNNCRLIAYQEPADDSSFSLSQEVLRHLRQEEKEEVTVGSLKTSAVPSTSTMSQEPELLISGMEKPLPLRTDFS

- EC50 (Human STING): 1 to 10 nM
SMILES: CCn1nc(C)cc1C(=O)Nc1nc2cc(C(N)=O)cc3c2n1C/C=C/Cn1c(NC(=O)c2cc(C)nn2CC)nc2cc(C(N)=O)cc(c21)OCC(N1CC2CCC(C1)O2)CO3 [Compound 1, (E)-8-(8-oxa-3-azabicyclo[3.2.1]octan-3-yl)-1,15-bis(1-ethyl-3-methyl-1H-pyrazole-5-carboxamido)-8,9,16,19-tetrahydro-7H-6,10-dioxa-2,14,15a,19a-tetraazacyclopentadeca[3,2,1-cd:8,9,10-c′d′]diindene-4,12-dicarboxamide]
- IFNβ secretion (IFNβ): 4344 pg/mL
